Active and inactive are the calls of the source.
Tests used:
[1] = miR-122 activators in hepatoma reporter cells, dose response, cell-based, Huh7 psiCHECK-miR122, Renilla luciferase, cherry-picked (AID 651956); assay type: functional;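 note: huh7 hepatoma cells stably carrying a psiCHECK-2 miR-122 sensor plasmid; renilla luciferase signal reporting endogenous miR-122 activity after 48 h compound exposure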
[2] = target: T1, Heat shock factor protein 1 (Mus musculus, UniProt P38532); experiment: inhibition of MG132-induced HSE-luciferase signal, confirmation, cell-based, NIH3T3, luminescence, dose retest (AID 2382); assay type: functional;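 note: NIH3T3 fibroblasts with HSF1-driven luciferase reporter stressed by proteasome inhibitor MG132; luminescence from HSF1-driven luciferase expression after 8 hours of MG132 stress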
T1 sequence (P38532 whole entry): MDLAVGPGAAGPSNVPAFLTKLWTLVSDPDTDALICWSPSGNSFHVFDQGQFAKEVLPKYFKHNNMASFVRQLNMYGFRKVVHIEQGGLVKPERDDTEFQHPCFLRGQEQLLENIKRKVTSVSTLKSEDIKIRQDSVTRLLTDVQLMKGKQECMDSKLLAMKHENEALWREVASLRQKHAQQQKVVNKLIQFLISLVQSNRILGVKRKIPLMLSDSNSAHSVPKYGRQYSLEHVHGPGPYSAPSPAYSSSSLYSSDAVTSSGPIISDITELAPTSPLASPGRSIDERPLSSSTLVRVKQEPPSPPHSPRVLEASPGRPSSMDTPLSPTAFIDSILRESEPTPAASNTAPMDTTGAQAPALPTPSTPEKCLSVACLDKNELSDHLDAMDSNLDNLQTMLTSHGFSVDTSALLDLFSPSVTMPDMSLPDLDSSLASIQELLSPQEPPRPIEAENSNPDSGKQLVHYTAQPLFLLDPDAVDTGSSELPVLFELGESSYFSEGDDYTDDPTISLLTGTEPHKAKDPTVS

[3] = system: Vero; experiment: cells; assay type: functional; settings: Chlorocebus sabaeus
[4] = target: Tumor necrosis factor (Homo sapiens, UniProt P01375); experiment: TNFa-triggered NF-kB activation inhibitors, SAR follow-up, cell-based, revised (AID 2337); assay type: functional
Tumor necrosis factor, sequence (P01375 whole entry): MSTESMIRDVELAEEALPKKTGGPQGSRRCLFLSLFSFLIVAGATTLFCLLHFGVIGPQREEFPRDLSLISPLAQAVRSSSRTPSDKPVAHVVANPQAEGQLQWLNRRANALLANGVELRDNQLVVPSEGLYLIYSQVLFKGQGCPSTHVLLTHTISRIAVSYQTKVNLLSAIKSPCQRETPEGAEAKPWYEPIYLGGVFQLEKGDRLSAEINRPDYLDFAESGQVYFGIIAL

[5] = system: HEK293; experiment: cells; settings: Homo sapiens;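 note: cells exposed to compound for 14 hours overnight before viability readout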
[6] = target: T2, Nucleotide-binding oligomerization domain-containing protein 1 (Homo sapiens, UniProt Q9Y239); experiment: NOD1 signaling inhibitors, SAR follow-up, revised (AID 2333); assay type: functional
T2 sequence (Q9Y239 whole entry): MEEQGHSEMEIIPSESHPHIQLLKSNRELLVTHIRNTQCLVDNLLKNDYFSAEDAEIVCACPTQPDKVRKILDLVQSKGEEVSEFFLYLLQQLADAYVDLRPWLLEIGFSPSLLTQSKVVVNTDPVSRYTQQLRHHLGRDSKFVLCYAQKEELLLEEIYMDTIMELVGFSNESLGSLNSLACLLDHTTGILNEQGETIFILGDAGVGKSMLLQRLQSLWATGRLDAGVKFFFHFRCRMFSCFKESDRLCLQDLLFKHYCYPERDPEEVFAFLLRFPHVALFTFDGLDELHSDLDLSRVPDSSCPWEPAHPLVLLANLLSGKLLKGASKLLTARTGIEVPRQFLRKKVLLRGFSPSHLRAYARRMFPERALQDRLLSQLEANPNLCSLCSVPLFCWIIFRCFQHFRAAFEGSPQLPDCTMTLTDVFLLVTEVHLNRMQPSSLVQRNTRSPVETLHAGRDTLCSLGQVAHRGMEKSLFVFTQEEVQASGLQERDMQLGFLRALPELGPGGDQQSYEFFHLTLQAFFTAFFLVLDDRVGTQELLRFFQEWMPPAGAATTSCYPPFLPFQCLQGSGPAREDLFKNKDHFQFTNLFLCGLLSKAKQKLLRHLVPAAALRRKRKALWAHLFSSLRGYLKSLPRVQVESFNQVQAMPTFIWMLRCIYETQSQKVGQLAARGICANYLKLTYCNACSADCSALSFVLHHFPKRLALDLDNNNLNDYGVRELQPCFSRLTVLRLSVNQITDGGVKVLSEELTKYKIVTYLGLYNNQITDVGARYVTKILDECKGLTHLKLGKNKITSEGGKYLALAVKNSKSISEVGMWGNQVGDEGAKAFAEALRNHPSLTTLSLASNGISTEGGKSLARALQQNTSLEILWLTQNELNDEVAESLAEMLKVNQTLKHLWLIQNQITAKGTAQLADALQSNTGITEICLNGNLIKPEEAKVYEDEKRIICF

[7] = target: Glucose-6-phosphate 1-dehydrogenase (Homo sapiens, UniProt P11413); experiment: human G6PD enzyme inhibitors, dose response, selectivity assay for P. falciparum G6PD inhibitor project, biochemical, fluorescence (AID 504792); assay type: functional
Glucose-6-phosphate 1-dehydrogenase, sequence (P11413 whole entry): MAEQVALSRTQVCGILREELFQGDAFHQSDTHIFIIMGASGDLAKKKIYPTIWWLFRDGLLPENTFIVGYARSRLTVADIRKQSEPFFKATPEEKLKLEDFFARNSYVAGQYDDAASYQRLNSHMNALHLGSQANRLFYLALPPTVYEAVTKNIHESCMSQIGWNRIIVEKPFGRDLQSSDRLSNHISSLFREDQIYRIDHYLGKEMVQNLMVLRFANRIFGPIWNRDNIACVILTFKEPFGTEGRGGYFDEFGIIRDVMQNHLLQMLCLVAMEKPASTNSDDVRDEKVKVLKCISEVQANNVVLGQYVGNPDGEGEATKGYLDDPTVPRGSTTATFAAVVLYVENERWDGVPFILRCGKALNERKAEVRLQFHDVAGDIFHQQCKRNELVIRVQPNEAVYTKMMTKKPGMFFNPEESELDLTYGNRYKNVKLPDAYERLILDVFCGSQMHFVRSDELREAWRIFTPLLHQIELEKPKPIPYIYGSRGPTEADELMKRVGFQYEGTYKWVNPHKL

[8] = target: T3, Corticotropin-releasing factor receptor 2/Corticotropin-releasing factor-binding protein (Homo sapiens, UniProt P24387+Q13324); experiment: activators of CRF receptor 2 with binding protein – uHTS hits, confirmation (AID 602473); assay type: functional; settings: read-out: EC50_Mean
T3 sequence (Q13324 whole entry): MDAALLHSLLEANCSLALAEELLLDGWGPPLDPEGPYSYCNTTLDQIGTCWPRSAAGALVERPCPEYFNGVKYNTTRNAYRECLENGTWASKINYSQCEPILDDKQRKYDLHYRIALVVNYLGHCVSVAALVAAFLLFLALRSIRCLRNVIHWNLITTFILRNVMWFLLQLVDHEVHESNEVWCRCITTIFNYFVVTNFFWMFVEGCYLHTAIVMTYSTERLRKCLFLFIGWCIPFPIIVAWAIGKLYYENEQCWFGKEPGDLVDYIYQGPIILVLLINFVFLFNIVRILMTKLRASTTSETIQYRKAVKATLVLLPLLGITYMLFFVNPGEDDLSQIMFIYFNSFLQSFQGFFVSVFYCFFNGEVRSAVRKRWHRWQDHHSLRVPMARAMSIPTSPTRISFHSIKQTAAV
T3 sequence (P24387 whole entry): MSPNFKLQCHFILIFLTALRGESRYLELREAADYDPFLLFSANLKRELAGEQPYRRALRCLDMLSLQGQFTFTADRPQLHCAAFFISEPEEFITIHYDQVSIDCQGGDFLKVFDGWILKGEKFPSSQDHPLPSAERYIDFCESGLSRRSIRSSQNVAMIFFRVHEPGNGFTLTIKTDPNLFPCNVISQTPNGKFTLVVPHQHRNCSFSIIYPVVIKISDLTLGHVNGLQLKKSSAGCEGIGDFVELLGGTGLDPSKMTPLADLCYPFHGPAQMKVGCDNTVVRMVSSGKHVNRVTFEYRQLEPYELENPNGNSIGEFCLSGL

[9] = target: T3, Corticotropin-releasing factor receptor 2/Corticotropin-releasing factor-binding protein; experiment: Dose Response confirmation of uHTS hits for small molecule antagonists of the CRF-binding protein and CRF-R2 receptor complex.; assay type: functional; settings: read-out: IC50_Mean
[10] = target: T4, Ubiquitin-conjugating enzyme E2 N (Homo sapiens, UniProt P61088); assay type: functional;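 note: Dose-response confirmation in a TR-FRET assay detecting UBC13-driven polyubiquitin chain formation, inhibition measured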
T4 sequence (P61088 whole entry): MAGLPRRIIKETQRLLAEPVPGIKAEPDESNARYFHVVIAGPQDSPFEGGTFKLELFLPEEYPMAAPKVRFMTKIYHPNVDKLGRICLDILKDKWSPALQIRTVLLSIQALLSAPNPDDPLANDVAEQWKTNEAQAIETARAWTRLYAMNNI

[11] = cells; assay type: functional
[12] = target: Glyceraldehyde-3-phosphate dehydrogenase (Homo sapiens, UniProt P04406)
Glyceraldehyde-3-phosphate dehydrogenase, sequence (P04406 whole entry): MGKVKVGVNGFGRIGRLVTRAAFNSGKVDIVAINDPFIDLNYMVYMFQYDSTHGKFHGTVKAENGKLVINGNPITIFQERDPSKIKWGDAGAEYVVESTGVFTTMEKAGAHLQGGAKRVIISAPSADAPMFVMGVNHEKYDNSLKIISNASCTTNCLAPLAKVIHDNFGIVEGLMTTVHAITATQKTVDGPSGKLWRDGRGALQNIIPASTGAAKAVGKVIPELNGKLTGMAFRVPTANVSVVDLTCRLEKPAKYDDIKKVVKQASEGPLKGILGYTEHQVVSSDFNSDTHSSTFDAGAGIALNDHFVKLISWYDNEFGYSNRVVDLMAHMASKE

[13] = HepG2 cell cytotoxicity, dose response, cytotoxicity control for Shn3 inhibitor project, CellTiter-Glo, cherry-picked (AID 624134); assay type: functional, cell-based
[14] = control 3'UTR Renilla luciferase suppression, dose response, counter-screen for Shn3 inhibitor project, cell-based, Clone20-Shn3RL, cherry-picked (AID 624133); assay type: functional
[15] = microbe, parasite or virus in culture; assay type: functional; settings: Mycobacterium tuberculosis
[16] = Shn3 3'UTR reporter inhibitors, dose response, cell-based, Clone20 osteoblasts, firefly luciferase, cherry-picked (AID 624132); assay type: functional;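 note: firefly luciferase luminescence from reporter carrying the Shn3 3'UTR in osteoblasts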

SMILES: O=C(CNCCC1=CCCCC1)Nc1ccccc1N1CCCCCC1
- AC50 [1]: 2.54 µM (active)

SMILES: Cc1ccc2c(c1)C1CN(C)CCC1N2C(=O)Nc1cccc(C(F)(F)F)c1 (configuration not stated)
- EC50 [2]: > 195 µM (not active)
- CC50 [3]: > 25 µM (active)

SMILES: COC(=O)c1c(NC(=O)C=Cc2cccs2)sc2c1CCC(C)C2 (configuration not stated)
- IC50 [4]: 5.68 µM (active)
- IC50 [5]: > 20 µM (inactive)
- IC50 [6]: 9.46 µM (active)

SMILES: CCNc1cc2c(cc1O)CCC1C2CCC2(C)C(O)CCC12 (configuration not stated)
- IC50 [7]: > 80 µM (inactive)

SMILES: C/C=C/c1ccc2c(c1)O[C@H](CN(C)C(=O)Cc1cccnc1)[C@H](C)CN([C@H](C)CO)S2(=O)=O
- AC50 [1]: 10.7 µM (active)

SMILES: CNC(=O)C[C@@H]1CC[C@@H]2[C@@H](COc3ccc(NC(=O)c4cccc(OC)c4)cc3C(=O)N2C)O1
- AC50 [1]: 67.7 µM (active)

SMILES: COc1ccc(Cl)cc1Nc1nc(NCCO)nc(N2CCCCC2)n1
- EC50 [8]: > 53 µM (inactive)
- IC50 [9]: > 47.1 µM (inactive)
- IC50 [10]: > 20 µM (inactive)

SMILES: CC(C)(C)OC(=O)[C@H](CCCCN)NC(=O)c1[nH]cnc1C(=O)N[C@@H](Cc1ccccc1)C(=O)OCc1ccccc1
- IC50 [10]: > 20 µM (inactive)

SMILES: CCOc1ccc2ccccc2c1/C=N/NC(=O)c1ccncc1
- IC50 [7]: 27.1 µM (inactive)
- IC50 [11]: 0.21 µM (active)

SMILES: COC1=CC(=O)C=C(OC)C1(O)CC(C)=O
- IC50 [7]: 54.3 µM (inactive)

SMILES: COc1cc([N+](=O)[O-])ccc1S(=O)(=O)Nc1cccnc1
- IC50 [12]: > 100 µM (not active)

SMILES: Oc1ccccc1Nc1nc(NCc2ccccc2)c2ccccc2n1
- AC50 [13]: 52.7 µM (active)
- AC50 [14]: 5.63 µM (active)
- CC50 [15]: 23.9 µM (active)
- AC50 [16]: 10.7 µM (active)
- IC50 [10]: > 20 µM (inactive)

Source: ChEMBL document CHEMBL1201862, “PubChem BioAssay data set” (2004)
